Results published in PubChem BioAssay (NCI).
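Compound exposure: 48 hours, 5 concentrations, 96-well plates. TGI is the concentration that stops growth completely.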

How the values were obtained:
Test in all cases: DTP human tumour cell line panel, 48 h
[1] = tested on: TK-10 renal
[2] = tested on: MDA-N
[3] = tested on: RXF 393 renal
[4] = tested on: OVCAR-4 ovarian
[5] = tested on: CAKI-1 renal
[6] = tested on: SK-MEL-5 melanoma
[7] = tested on: NCI-H226 lung
[8] = tested on: MALME-3M melanoma
[9] = tested on: A549 NSCLC
[10] = tested on: NCI-H460 lung
[11] = tested on: SF-268 CNS
[12] = tested on: NCI-H522 lung
[13] = tested on: BT-549 breast
[14] = tested on: SK-MEL-28 melanoma
[15] = tested on: LOX IMVI melanoma
[16] = tested on: MCF7 breast
[17] = tested on: NCI/ADR-RES ovarian
[18] = tested on: SW-620 colon
[19] = tested on: OVCAR-8 ovarian
[20] = tested on: EKVX NSCLC
[21] = tested on: HT29 colon
[22] = tested on: T-47D breast
[23] = tested on: UACC-257 melanoma
[24] = tested on: SN12C renal
[25] = tested on: HCT-116 colon
[26] = tested on: HOP-62 NSCLC
[27] = tested on: OVCAR-5 ovarian
[28] = tested on: DU-145 prostate
[29] = tested on: COLO 205 colon
[30] = tested on: HS 578T breast
[31] = tested on: UO-31 renal
[32] = tested on: KM12 colon
[33] = tested on: M14 melanoma
[34] = tested on: SK-MEL-2 melanoma
[35] = tested on: U251 CNS
[36] = tested on: MDA-MB-435
[37] = tested on: MDA-MB-231 breast
[38] = tested on: 786-0 renal
[39] = tested on: UACC-62 melanoma
[40] = tested on: RPMI-8226 leukemia
[41] = tested on: K-562 leukemia
[42] = tested on: NCI-H23 lung
[43] = tested on: ACHN renal
[44] = tested on: HOP-92 NSCLC
[45] = tested on: PC-3 prostate
[46] = tested on: IGROV1 ovarian
[47] = tested on: A498 renal
[48] = tested on: SF-295 CNS
[49] = tested on: SF-539 CNS
[50] = tested on: SK-OV-3 ovarian
[51] = tested on: SNB-19 CNS
[52] = tested on: HCT-15 colon
[53] = tested on: SR leukemia
[54] = tested on: OVCAR-3 ovarian
[55] = tested on: HL-60(TB) leukemia
[56] = tested on: SNB-75 CNS
[57] = tested on: HCC-2998 colon
[58] = tested on: MOLT-4 leukemia
[59] = tested on: CCRF-CEM leukemia

## CN(C)CCCNc1cc(O)c2c(c1O)C(=O)c1ccccc1C2=O
[1]
  TGI: 22.1 µM
[2]
  TGI: 27.4 µM
[3]
  TGI: 17 µM
[4]
  TGI: 25.4 µM
[5]
  TGI: 25.7 µM
[6]
  TGI: 26.5 µM
[7]
  TGI: 35.2 µM
[8]
  TGI: 50.2 µM
[9]
  TGI: 23.9 µM
[10]
  TGI: 19.4 µM
[11]
  TGI: 36.4 µM
[12]
  TGI: 40.7 µM
[13]
  TGI: 34.2 µM
[14]
  TGI: 31 µM
[15]
  TGI: 24.8 µM
[16]
  TGI: 35.9 µM
[17]
  TGI: 15.5 µM
[18]
  TGI: 21.7 µM
[19]
  TGI: 30.5 µM
[20]
  TGI: 31.1 µM
[21]
  TGI: 24 µM
[22]
  TGI: 36.5 µM
[23]
  TGI: 26.6 µM
[24]
  TGI: 16.5 µM
[25]
  TGI: 18.4 µM
[26]
  TGI: 23.3 µM
[27]
  TGI: 33.7 µM
[28]
  TGI: 28 µM
[29]
  TGI: 24.5 µM
[30]
  TGI: 50.2 µM
[31]
  TGI: 11.9 µM
[32]
  TGI: 21.7 µM
[33]
  TGI: 19.5 µM
[34]
  TGI: 35.7 µM
[35]
  TGI: 27.2 µM
[36]
  TGI: 29.2 µM
[37]
  TGI: 27.6 µM
[38]
  TGI: 21 µM
[39]
  TGI: 35.3 µM
[40]
  TGI: 29.8 µM
[41]
  TGI: 21.6 µM
[42]
  TGI: 27.9 µM
[43]
  TGI: 27.5 µM
[44]
  TGI: 29.6 µM
[45]
  TGI: 27.5 µM
[46]
  TGI: 24.6 µM
[47]
  TGI: 37 µM
[48]
  TGI: 25.9 µM
[49]
  TGI: 26.7 µM
[50]
  TGI: 24.8 µM
[51]
  TGI: 21.8 µM
[52]
  TGI: 21 µM
[53]
  TGI: 15.9 µM
[54]
  TGI: 23.5 µM

## C#CCOCC12C=CC(O1)C1COC(=O)C12 (stereo unspecified)
[1]
  TGI: > 100 µM
[2]
  TGI: > 100 µM
[3]
  TGI: > 100 µM
[4]
  TGI: > 100 µM
[5]
  TGI: > 100 µM
[6]
  TGI: > 100 µM
[7]
  TGI: > 100 µM
[55]
  TGI: > 100 µM
[8]
  TGI: > 100 µM
[9]
  TGI: > 100 µM
[10]
  TGI: > 100 µM
[11]
  TGI: > 100 µM
[12]
  TGI: > 100 µM
[13]
  TGI: > 100 µM
[14]
  TGI: > 100 µM
[15]
  TGI: > 100 µM
[17]
  TGI: > 100 µM
[18]
  TGI: > 100 µM
[19]
  TGI: > 100 µM
[20]
  TGI: > 100 µM
[21]
  TGI: > 100 µM
[22]
  TGI: > 100 µM
[23]
  TGI: > 100 µM
[56]
  TGI: > 100 µM
[24]
  TGI: > 100 µM
[25]
  TGI: > 100 µM
[26]
  TGI: > 100 µM
[27]
  TGI: > 100 µM
[57]
  TGI: > 100 µM
[28]
  TGI: > 100 µM
[29]
  TGI: > 100 µM
[30]
  TGI: > 100 µM
[31]
  TGI: > 100 µM
[32]
  TGI: > 100 µM
[33]
  TGI: > 100 µM
[58]
  TGI: > 100 µM
[35]
  TGI: > 100 µM
[36]
  TGI: > 100 µM
[37]
  TGI: > 100 µM
[38]
  TGI: > 100 µM
[39]
  TGI: > 100 µM
[40]
  TGI: > 100 µM
[41]
  TGI: > 100 µM
[42]
  TGI: > 100 µM
[43]
  TGI: > 100 µM
[44]
  TGI: > 100 µM
[45]
  TGI: > 100 µM
[59]
  TGI: > 100 µM
[46]
  TGI: > 100 µM
[47]
  TGI: > 100 µM
[48]
  TGI: > 100 µM
[49]
  TGI: > 100 µM
[50]
  TGI: > 100 µM
[51]
  TGI: > 100 µM
[52]
  TGI: > 100 µM
[53]
  TGI: > 100 µM
[54]
  TGI: > 100 µM

## CCCCCCCCCCCCOCCOCCOCCOCCOCCOCC(=O)NC(Cc1ccccc1)C(=O)Oc1ccc([N+](=O)[O-])cc1 (stereo unspecified)
[1]
  TGI: > 100 µM
[2]
  TGI: > 100 µM
[3]
  TGI: > 100 µM
[4]
  TGI: > 100 µM
[5]
  TGI: > 100 µM
[6]
  TGI: > 100 µM
[7]
  TGI: > 100 µM
[55]
  TGI: > 100 µM
[8]
  TGI: > 100 µM
[9]
  TGI: > 100 µM
[10]
  TGI: > 100 µM
[11]
  TGI: > 100 µM
[12]
  TGI: > 100 µM
[13]
  TGI: > 100 µM
[15]
  TGI: > 100 µM
[16]
  TGI: > 100 µM
[17]
  TGI: > 100 µM
[18]
  TGI: > 100 µM
[19]
  TGI: > 100 µM
[20]
  TGI: > 100 µM
[21]
  TGI: > 100 µM
[22]
  TGI: > 100 µM
[23]
  TGI: > 100 µM
[56]
  TGI: > 100 µM
[25]
  TGI: > 100 µM
[26]
  TGI: > 100 µM
[27]
  TGI: > 100 µM
[29]
  TGI: 35.9 µM
[30]
  TGI: > 100 µM
[31]
  TGI: > 100 µM
[32]
  TGI: > 100 µM
[33]
  TGI: > 100 µM
[58]
  TGI: 74.8 µM
[34]
  TGI: 47.9 µM
[35]
  TGI: > 100 µM
[36]
  TGI: > 100 µM
[37]
  TGI: > 100 µM
[38]
  TGI: > 100 µM
[39]
  TGI: 56.4 µM
[40]
  TGI: > 100 µM
[41]
  TGI: > 100 µM
[42]
  TGI: > 100 µM
[43]
  TGI: > 100 µM
[44]
  TGI: > 100 µM
[45]
  TGI: > 100 µM
[59]
  TGI: > 100 µM
[46]
  TGI: > 100 µM
[47]
  TGI: 75.6 µM
[48]
  TGI: > 100 µM
[49]
  TGI: > 100 µM
[50]
  TGI: > 100 µM
[51]
  TGI: > 100 µM
[52]
  TGI: > 100 µM
[53]
  TGI: 63.9 µM
[54]
  TGI: 51.9 µM
